# Molecular target: HIV-1 fusion (gp160 induced cell-cell fusion; HeLa P4 cell line expressing CCR5 and CD4 / CHO-Tat10 cell line) (Homo sapiens, UniProt P51681)
# Assay: gp160 induced cell-cell fusion assay
# Assay type: cell-based
# Settings: HeLa P4 / CHO-Tat10 cells, read-out: IC50
# Description: Biol., 60, 147-52 (1996); and/or by using the intracellular calcium mobilisation assays as described by the same authors, and/or inhibiting cell fusion following procedures disclosed in Bradley et al., J Biomol Screen 9, 516-24 (2004).
# The gp160 induced cell-cell fusion assay uses a HeLa P4 cell line and a CHO-Tat10 cell line.
# The HeLa P4 cell line expresses CCR5 and CD4 and has been transfected with HIV-1 LTR-β-Galactosidase. The media for this cell line is Dulbecco modified eagle's medium (D-MEM) (without L-glutamine) containing 10% foetal calf serum (FCS), 2 mM L-glutamine, penicillin/streptomycin (Pen/Strep; 100 U/mL penicillin+[…] streptomycin), and 1 μg/ml puromycin.
# The CHO cell line is a Tat (transcriptional trans activator)-expressing clone from a CHO JRR17.1 cell line that has been transfected with pTat puro plasmid. The media for this cell line is rich medium for mammalian cell culture originally developed at Roswell Park Memorial Institute RPMI1640 (without L-glutamine) containing 10% FCS, 2 mM L-glutamine, 0.5 mg/ml Hygromycin B and 12 µg/ml puromycin. The CHO JRR17.1 line expresses gp160 (JRFL) and is a clone that has been selected for its ability to fuse with a CCR5/CD4 expressing cell line.
# Upon cell fusion, Tat present in the CHO cell is able to transactivate the HIV-1 long terminal repeat (LTR) present in the HeLa cell leading to the expression of the β-Galactosidase enzyme. This expression is then measured using a Fluor Ace™ β-Galactosidase reporter assay kit (Bio-Rad cat no. 170-3150). This kit is a quantitative fluorescent assay that determines the level of expression of β-galactosidase using 4-methylumbelliferyl-galactopyranoside (MUG) as substrate. β-Galactosidase hydrolyses the fluorogenic substrate resulting in release of the fluorescent molecule 4-methylumbelliferone (4MU). Fluorescence of 4-methylumbelliferone is then measured on a fluorometer using an excitation wavelength of 360 nm and emission wavelength of 460 nm.
# Compounds that inhibit fusion will give rise to a reduced signal and, following solubilisation in an appropriate solvent and dilution in culture medium, a dose-response curve for each compound can be used to calculate IC50 values.
# Sequence of HIV-1 fusion (gp160 induced cell-cell fusion; HeLa P4 cell line expressing CCR5 and CD4 / CHO-Tat10 cell line) (P51681 whole entry, the tested form may be a part): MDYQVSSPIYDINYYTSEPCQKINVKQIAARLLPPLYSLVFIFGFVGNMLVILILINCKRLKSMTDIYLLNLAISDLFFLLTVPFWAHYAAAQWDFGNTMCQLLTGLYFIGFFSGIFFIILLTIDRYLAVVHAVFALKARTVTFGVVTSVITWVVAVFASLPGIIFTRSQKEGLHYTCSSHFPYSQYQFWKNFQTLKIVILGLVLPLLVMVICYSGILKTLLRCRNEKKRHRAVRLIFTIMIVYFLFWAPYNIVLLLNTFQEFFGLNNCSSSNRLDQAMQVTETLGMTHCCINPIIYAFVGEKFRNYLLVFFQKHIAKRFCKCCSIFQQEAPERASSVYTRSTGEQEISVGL
row,SMILES,IC50 [nM]
1,Cc1nc2c(n1C1CCN(C(C)C[C@H](NC(=O)C3(C)CC3)c3ccccc3)CC1)CN(C(=O)C(C)C)CC2 (some centres unmarked) [Example 27],115
2,CC(=O)N1CCc2nc(C)n(C3CCN(C(C)C[C@H](NC(=O)C4(C)CC4)c4cccc(F)c4)CC3)c2C1 (some centres unmarked) [Example 48],0.8
3,CC(=O)N1CCc2nc(C)n(C3CCN(C(C)C[C@H](NC(=O)C4CCC4(F)F)c4cccc(F)c4)CC3)c2C1 (some centres unmarked) [Example 49],0.4
4,CC(=O)N1CCc2nc(C)n(C3CCN(C(C)C[C@H](NC(=O)C4CCOCC4)c4cccc(F)c4)CC3)c2C1 (some centres unmarked) [Example 52],1
5,CC(=O)N1CCc2nc(C)n(C3CCN(C(C)C[C@H](NC(=O)C4CCC4(F)F)c4ccccc4)CC3)c2C1 (some centres unmarked) [Example 53],0.5
6,CC(=O)N1CCc2nc(C)n(C3CCN(C(C)C[C@H](NC(=O)C4CCC(F)(F)CC4)c4ccccc4)CC3)c2C1 (some centres unmarked) [Example 54],0.4
7,CC(=O)N1CCc2nc(C)n(C3CCN(C(C)C[C@H](NC(=O)C4(C)CC4)c4ccccc4)CC3)c2C1 (some centres unmarked) [Example 55],0.3
8,CC(=O)N1CCc2nc(C)n(C3CCN(C(C)C[C@H](NC(=O)C4CCC4)c4cccc(F)c4)CC3)c2C1 (some centres unmarked) [Example 57],0.2
9,COC(=O)N[C@@H](CC(C)N1CCC(n2c(C)nc3c2CN(C(C)=O)CC3)CC1)c1cccc(F)c1 (some centres unmarked) [Example 59],13
10,CC(=O)N1CCc2nc(C)n(C3CCN(C(C)C[C@H](NC(=O)C4CC4)c4cccc(F)c4)CC3)c2C1 (some centres unmarked) [Example 60],0.6
11,CC(=O)N1CCc2nc(C)n(C3CCN(C(C)C[C@H](NC(=O)OC(C)C)c4cccc(F)c4)CC3)c2C1 (some centres unmarked) [Example 61],1.6
12,CC(=O)N1CCc2nc(C)n(C3CCN(C(C)C[C@H](NC(=O)OC(C)C)c4ccccc4)CC3)c2C1 (some centres unmarked) [Example 63],1.8
13,CC(=O)N[C@@H](CC(C)N1CCC(n2c(C)nc3c2CN(C(=O)C(C)C)CC3)CC1)c1cccc(F)c1 (some centres unmarked) [Example 64],2
14,CCC(=O)N[C@@H](CC(C)N1CCC(n2c(C)nc3c2CN(C(=O)C(C)C)CC3)CC1)c1cccc(F)c1 (some centres unmarked) [Example 65],0.6
15,"CCOC(=O)N1CCc2nc(C)n(C3CCN(C(C)C[C@H](NC(C)=O)c4cccc(F)c4)CC3)c2C1 (stereo partly drawn) [Example 66, Ethyl 3-{1-[(3S)-3-(acetylamino)-3-(3-fluorophenyl)-1-methylpropyl]piperidin-4-yl}-2-methyl-3,4,6,7-tetrahydro-5H-imidazo[4,5-c]pyridine-5-carboxylate]",3.5
16,CCC(=O)N[C@@H](CC(C)N1CCC(n2c(C)nc3c2CN(C(=O)OC)CC3)CC1)c1cccc(F)c1 (some centres unmarked) [Example 67],0.2
17,"CCCC(=O)N[C@@H](CC(C)N1CCC(n2c(C)nc3c2CN(C(=O)OC)CC3)CC1)c1cccc(F)c1 (stereo partly drawn) [Example 69, Methyl 3-{1-[(3S)-3-(butyrylamino)-3-(3-fluorophenyl)-1-methylpropyl]piperidin-4-yl}-2-methyl-3,4,6,7-tetrahydro-5H-imidazo[4,5-c]pyridine-5-carboxylate]",0.2
18,"COC(=O)N1CCc2c(nc(C)n2C2CCN(C(C)C[C@H](NC(=O)C3CC(F)(F)C3)c3cccc(F)c3)CC2)C1 (stereo partly drawn) [Example 80, Methyl 1-{1-[(3S)-3-{[(3,3-difluorocyclobutyl)carbonyl]amino}-3-(3-fluorophenyl)-1-methylpropyl]piperidin-4-yl}-2-methyl-1,4,6,7-tetrahydro-5H-imidazo[4,5-c]pyridine-5-carboxylate]",0.2
19,CCC(=O)N[C@@H](CC(C)N1CCC(n2c(C)nc3c2CCN(C(=O)OC)C3)CC1)c1cccc(F)c1 (some centres unmarked) [Example 91],102
20,CC(=O)N1CCc2c(nc(C)n2C2CCN(C(C)C[C@H](NC(=O)C3CC3)c3cccc(F)c3)CC2)C1 (some centres unmarked) [Example 103],0.2
21,"CC(C)c1noc(C2CCN(C(C)C[C@H](NC(=O)C3CCC3)c3ccccc3)CC2)n1 (stereo partly drawn) [Example 105, N-{(1S)-3-[4-(3-isoPropyl-1,2,4-oxadiazol-5-yl)piperidin-1-yl]-1-phenylbutyl}cyclobutanecarboxamide]",94.6
22,"CC(C)c1nccn1C1CCN(C(C)C[C@H](NC(=O)C2CCC(F)(F)CC2)c2ccccc2)CC1 (stereo partly drawn) [Example 111, 4,4-Difluoro-N-{(1S)-3-[4-(2-isopropyl-1H-imidazol-1-yl)piperidin-1-yl]-1-phenylbutyl}cyclohexanecarboxamide]",0.2
23,"Cc1nccn1C1CCN(C(C)C[C@H](NC(=O)C2CCC(F)(F)CC2)c2ccccc2)CC1 (stereo partly drawn) [Example 112, 4,4-Difluoro-N-{(1S)-3-[4-(2-methyl-1H-imidazol-1-yl)piperidin-1-yl]-1-phenylbutyl}cyclohexanecarboxamide]",1

# Same assay, conditions: IC50 (nM), HeLa P4 / CHO-Tat10 cells
row,SMILES,IC50 [nM]
1,"CCCC(=O)N[C@@H](CC(C)N1CCC(n2c(C)nc3c2CN(C(C)=O)CC3)CC1)c1ccccc1 (stereo partly drawn) [Example 56, N-{(1S)-3-[4-(5-acetyl-2-methyl-4,5,6,7-tetrahydro-3H-imidazo[4,5-c]pyridin-3-yl)piperidin-1-yl]-1-phenylbutyl}butanamide]",1.2
2,"CC(=O)N1CCc2nc(C)n(C3CCN(C(C)C[C@H](NC(=O)C(C)C)c4cccc(F)c4)CC3)c2C1 (stereo partly drawn) [Example 58, N-[(1S)-3-[4-(5-acetyl-2-methyl-4,5,6,7-tetrahydro-3H-imidazo[4,5-c]pyridin-3-yl)piperidin-1-yl]-1-(3-fluorophenyl)butyl]-2-methylpropanamide]",0.5
3,"CCC(=O)N[C@@H](CC(C)N1CCC(n2c(C)nc3c2CN(C(C)=O)CC3)CC1)c1cccc(F)c1 (stereo partly drawn) [Example 62, N-[(1S)-3-[4-(5-acetyl-2-methyl-4,5,6,7-tetrahydro-3H-imidazo[4,5-c]pyridin-3-yl)piperidin-1-yl]-1-(3-fluorophenyl)butyl]propanamide]",1
4,"CCC(=O)N[C@@H](CC(C)N1CCC(n2c(C)nc3c2CCN(C(=O)OC)C3)CC1)c1ccccc1 (stereo partly drawn) [Example 92, methyl 2-methyl-1-{1-[(3S)-1-methyl-3-phenyl-3-(propionylamino)propyl]piperidin-4-yl}-1,4,6,7-tetrahydro-5H-imidazo[4,5-c]pyridine-5-carboxylate]",0.4
5,"CC(=O)N1CCc2c(nc(C)n2C2CCN(C(C)C[C@H](NC(=O)C(C)C)c3cccc(F)c3)CC2)C1 (stereo partly drawn) [Example 94, N-[(1S)-3-[4-(5-acetyl-2-methyl-4,5,6,7-tetrahydro-1H-imidazo[4,5-c]pyridin-1-yl)piperidin-1-yl]-1-(3-fluorophenyl)butyl]-2-methylpropanamide]",0.2
6,"CCC(=O)N[C@@H](CC(C)N1CCC(n2c(C)nc3c2CCN(C(C)=O)C3)CC1)c1cccc(F)c1 (stereo partly drawn) [Example 104, N-[(1S)-3-[4-(5-acetyl-2-methyl-4,5,6,7-tetrahydro-1H-imidazo[4,5-c]pyridin-1-yl)piperidin-1-yl]-1-(3-fluorophenyl)butyl]propanamide]",0.8

# Source: US20090209578A1, “CHEMICAL COMPOUNDS” (PFIZER INC, priority 2005, published 2009)
